Measured values published in patent EP0710486A1, “REMEDY FOR URINATION DISORDER ACCOMPANYING PROSTATIC HYPERTROPHY” (YAMANOUCHI PHARMACEUTICAL CO. LTD., priority 1993, dated 1995).
Like-named read-outs stand apart in the source and are kept apart here. One block for each molecule: values may come before it.

Experiments:
[1] = human clinical tests (K. Kawabe et al., J. Urol., 1990); cited from earlier work
rat α1B-receptor subtype [2] = biological target: T1, rat α1B-receptor subtype (Rattus norvegicus, UniProt P15823); assay: Competitive binding experiment against [³H] prazosin, transfected COS-7 cell membranes; design: pcDV1Rα1B which contains a 2573 bp fragment containing the entire coding region of α1B receptor subtype cDNA; expressed in transfected cells; host or cells: COS-7 cells, transient expression, membrane preparation
T1 sequence (P15823 1-515): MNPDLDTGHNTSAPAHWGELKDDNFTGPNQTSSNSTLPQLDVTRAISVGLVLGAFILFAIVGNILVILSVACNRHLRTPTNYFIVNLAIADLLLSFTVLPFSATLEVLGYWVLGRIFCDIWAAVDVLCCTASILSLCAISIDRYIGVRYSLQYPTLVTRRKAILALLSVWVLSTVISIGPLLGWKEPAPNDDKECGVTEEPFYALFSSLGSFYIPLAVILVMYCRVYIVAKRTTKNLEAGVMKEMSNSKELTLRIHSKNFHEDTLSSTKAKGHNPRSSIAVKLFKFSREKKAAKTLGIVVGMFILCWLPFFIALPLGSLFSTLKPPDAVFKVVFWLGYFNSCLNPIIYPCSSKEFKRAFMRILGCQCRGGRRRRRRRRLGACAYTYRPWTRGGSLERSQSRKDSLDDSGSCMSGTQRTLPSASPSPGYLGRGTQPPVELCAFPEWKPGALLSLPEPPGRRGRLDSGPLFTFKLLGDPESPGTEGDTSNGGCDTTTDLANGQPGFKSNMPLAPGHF
Protocol: (§1) After 4 days of the transfection, these cells were again suspended in an ice-cold buffer for binding experiment (50 mmol/l Tris, 0.5 mmol/l EDTA, pH 7.5) and homogenized using Tissumeizer for 10 seconds at a maximum speed and then twice for 20 seconds at 2/3 speed. The thus obtained homogenate was centrifuged at 50,000 g for 20 minutes, and the resulting pellet was again suspended in the buffer for binding experiment to a concentration of 0.5 to 2 mg/ml.
(§2) This incubation was terminated by quick filtration under a reduced pressure using Whatman GF/C filter paper. Non-specific binding was defined as binding in the presence of 10 µmol/l of phentolamine. […] The protein content was determined in accordance with the Bradford method using bovine IgG as an standard. In the competitive binding experiment, each compound was evaluated by 3 to 4 tests using at least two separate batches of transfected cells.
(§3) The result was shown as the average value ± SEM of n times of tests.

[3] = biological target: T2, bovine α1C-receptor subtype (Bos taurus, UniProt P18130); assay: as above
T2 construct: pBCα1c which contains the entire coding region of bovine α1C receptor subtype; expressed in transfected cells; host or cells: COS-7 cells, transient expression, membrane preparation
T2 sequence (P18130 1-466): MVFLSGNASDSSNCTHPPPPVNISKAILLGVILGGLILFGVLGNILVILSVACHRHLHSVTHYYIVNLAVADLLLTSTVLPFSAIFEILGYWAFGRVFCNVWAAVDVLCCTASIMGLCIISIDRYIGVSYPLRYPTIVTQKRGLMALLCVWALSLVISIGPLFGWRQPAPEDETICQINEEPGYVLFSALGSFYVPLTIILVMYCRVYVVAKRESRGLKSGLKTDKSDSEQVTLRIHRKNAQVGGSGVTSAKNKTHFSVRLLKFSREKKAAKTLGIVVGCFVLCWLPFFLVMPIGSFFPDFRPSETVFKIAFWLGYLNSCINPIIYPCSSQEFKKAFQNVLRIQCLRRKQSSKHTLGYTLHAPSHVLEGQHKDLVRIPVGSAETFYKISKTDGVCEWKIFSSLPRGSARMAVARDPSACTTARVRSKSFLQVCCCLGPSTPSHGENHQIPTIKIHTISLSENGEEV

rat α1B-receptor subtype [4] = biological target: T1, rat α1B-receptor subtype; conditions: average ± SEM, n=5
Protocol: as §1, §2, §3

[5] = biological target: T3, rat α1A/D-receptor subtype (Rattus norvegicus, UniProt P23944); conditions: average ± SEM, n=8
T3 sequence (P23944 1-561): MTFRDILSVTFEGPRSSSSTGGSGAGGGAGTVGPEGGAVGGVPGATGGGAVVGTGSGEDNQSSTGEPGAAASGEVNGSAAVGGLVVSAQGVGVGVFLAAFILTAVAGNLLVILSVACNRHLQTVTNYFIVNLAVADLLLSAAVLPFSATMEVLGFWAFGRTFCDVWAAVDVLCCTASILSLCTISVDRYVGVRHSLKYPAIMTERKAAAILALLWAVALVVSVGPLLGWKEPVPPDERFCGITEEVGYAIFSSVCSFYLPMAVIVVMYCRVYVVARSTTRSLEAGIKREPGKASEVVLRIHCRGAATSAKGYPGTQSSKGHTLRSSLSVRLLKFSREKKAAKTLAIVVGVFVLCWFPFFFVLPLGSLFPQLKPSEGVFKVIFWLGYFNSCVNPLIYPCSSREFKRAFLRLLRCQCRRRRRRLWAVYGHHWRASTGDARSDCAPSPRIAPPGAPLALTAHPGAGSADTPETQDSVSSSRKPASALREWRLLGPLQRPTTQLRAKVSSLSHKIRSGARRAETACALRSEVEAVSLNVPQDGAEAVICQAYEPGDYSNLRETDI
Protocol: as §1, §2, §3

[6] = read-out: negative logarism values (-log values) of Ki values (converted)

Molecule: CCOc1ccccc1OCCN[C@H](C)Cc1ccc(OC)c(S(N)(=O)=O)c1 [Compound A, R(-)-5-[2-[[2-(o-ethoxyphenoxy)ethyl]amino]propyl]-2-methoxybenzenesulfonamide]
influence upon blood pressure [1]: without exerting influence upon blood pressure
side effects [1]: hardly shows side effects
treatment of urinary outlet obstruction associated with benign prostatic hyperplasia [1]: useful in treating urinary outlet obstruction associated with benign prostatic hyperplasia
Ki (rat α1B-receptor subtype [2]; [6]): 0.871 nM
Ki [3]: 0.0229 nM

Molecule: CCOc1ccccc1OCCN[C@@H](C)Cc1ccc(OC)c(S(N)(=O)=O)c1 [Compound B, S(+)-5-[2-[[2-(o-ethoxyphenoxy)ethyl]amino]propyl]-2-methoxybenzenesulfonamide]
Ki (rat α1B-receptor subtype [2]): 105 nM
Ki [3, 6]: 0.347 nM

BMAX (rat α1B-receptor subtype [4]): 1673 ± 1203 fmol/mg protein
BMAX [5]: 240 ± 87 fmol/mg protein
Molecule: [³H] prazosin
